Assays:
Assay in all cases: relative viability (nuclei count vs DMSO), 5 days (fraction); higher = more cells survive
Bleomycin + Decitabine = compound: CC1=C(N=C(N=C1N)[C@H](CC(=O)N)NC[C@@H](C(=O)N)N)C(=O)N[C@@H]([C@H](C2=CN=CN2)OC3C(C(C(C(O3)CO)O)O)OC4C(C(C(C(O4)CO)O)OC(=O)N)O)C(=O)N[C@H](C)[C@H]([C@H](C)C(=O)N[C@@H]([C@@H](C)O)C(=O)NCCC5=NC(=CS5)C6=NC(=CS6)C(=O)NCCC[S+](C)C)O [Bleomycin] + Nc1ncn([C@H]2C[C@H](O)[C@@H](CO)O2)c(=O)n1 [Decitabine] (partner 2 µM); conditions: main component drawn
Summary of the method: (§1)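 The day after seeding in 1536-well plates, lung cancer cell lines were treated by pin tool with a single drug, or with a fixed anchor-drug dose together with five library-drug doses (not always all listed) in √10 steps. After 5 days, a combined fix-and-stain solution (final 0.05% Triton X-100, 1% formaldehyde, 1 ug/ml Hoechst) was added. Nuclei counted on 4× images gave relative viability as treated counts over vehicle counts, reported as the median of duplicate plates.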

Bleomycin + Crizotinib = compound: CC1=C(N=C(N=C1N)[C@H](CC(=O)N)NC[C@@H](C(=O)N)N)C(=O)N[C@@H]([C@H](C2=CN=CN2)OC3C(C(C(C(O3)CO)O)O)OC4C(C(C(C(O4)CO)O)OC(=O)N)O)C(=O)N[C@H](C)[C@H]([C@H](C)C(=O)N[C@@H]([C@@H](C)O)C(=O)NCCC5=NC(=CS5)C6=NC(=CS6)C(=O)NCCC[S+](C)C)O [Bleomycin] + C[C@@H](Oc1cc(-c2cnn(C3CCNCC3)c2)cnc1N)c1c(Cl)ccc(F)c1Cl [Crizotinib] (partner 1 µM); conditions: main component drawn
Summary of the method: as §1

Etoposide + Tozasertib = compound: COc1cc([C@@H]2c3cc4c(cc3[C@@H](O[C@@H]3O[C@@H]5CO[C@@H](C)O[C@H]5[C@H](O)[C@H]3O)[C@H]3COC(=O)[C@H]23)OCO4)cc(OC)c1O [Etoposide] + Cc1cc(Nc2cc(N3CCN(C)CC3)nc(Sc3ccc(NC(=O)C4CC4)cc3)n2)n[nH]1 [Tozasertib] (partner 0.1 µM)
Summary of the method: as §1

Etoposide + Vorinostat = compound: COc1cc([C@@H]2c3cc4c(cc3[C@@H](O[C@@H]3O[C@@H]5CO[C@@H](C)O[C@H]5[C@H](O)[C@H]3O)[C@H]3COC(=O)[C@H]23)OCO4)cc(OC)c1O [Etoposide] + O=C(CCCCCCC(=O)Nc1ccccc1)NO [Vorinostat] (partner 1 µM)
Summary of the method: as §1

Cell Line | relative viability (Bleomycin + Decitabine; first compound 0.01 µM) | relative viability (Bleomycin + Decitabine; first compound 0.03162 µM) | relative viability (Bleomycin + Decitabine; first compound 0.1 µM) | relative viability (Bleomycin + Decitabine; first compound 0.3162 µM) | relative viability (Bleomycin + Decitabine; first compound 1 µM) | relative viability (Bleomycin + Crizotinib; first compound 0.01 µM) | relative viability (Bleomycin + Crizotinib; first compound 0.03162 µM) | relative viability (Bleomycin + Crizotinib; first compound 0.1 µM) | relative viability (Bleomycin + Crizotinib; first compound 0.3162 µM) | relative viability (Bleomycin + Crizotinib; first compound 1 µM) | relative viability (Etoposide + Tozasertib; first compound 0.01 µM) | relative viability (Etoposide + Tozasertib; first compound 0.03162 µM) | relative viability (Etoposide + Tozasertib; first compound 0.1 µM) | relative viability (Etoposide + Tozasertib; first compound 0.3162 µM) | relative viability (Etoposide + Tozasertib; first compound 1 µM) | relative viability (Etoposide + Vorinostat; first compound 0.01 µM) | relative viability (Etoposide + Vorinostat; first compound 0.03162 µM) | relative viability (Etoposide + Vorinostat; first compound 0.1 µM) | relative viability (Etoposide + Vorinostat; first compound 0.3162 µM) | relative viability (Etoposide + Vorinostat; first compound 1 µM)
NCI-H838 | 0.398 | 0.369 | 0.297 | 0.228 | 0.478 | 0.437 | 0.32 | 0.184 | 0.176 | 0.172 | 0.348 | 0.295 | 0.307 | 0.211 | 0.24 | 0.74 | 0.67 | 0.69 | 0.538 | 0.267
NCI-H460 | 0.301 | 0.228 | 0.279 | 0.0468 | 0.0408 | 0.331 | 0.0828 | 0.0648 | 0.0162 | 0.0149 | 0.396 | 0.369 | 0.338 | 0.0692 | 0.0251 | 0.688 | 0.261 | 0.286 | 0.0502 | 0.0457
LOU-NH91 | 0.624 | 0.611 | 0.472 | 0.38 | 0.406 | 0.593 | 0.537 | 0.531 | 0.39 | 0.331 | 0.713 | 0.673 | 0.566 | 0.554 | 0.341 | 0.88 | 0.982 | 0.831 | 0.659 | 0.387
NCI-H322M | 0.809 | 0.612 | 0.635 | 0.659 | 0.48 | 0.701 | 0.852 | 0.908 | 0.958 | 0.527 | 0.484 | 0.47 | 0.423 | 0.441 | 0.425 | 0.863 | 0.962 | 0.73 | 0.728 | 0.611
NCI-H520 | 0.501 | 0.54 | 0.456 | 0.424 | 0.416 | 0.531 | 0.898 | 0.735 | 0.505 | 0.4 | 0.427 | 0.408 | – | 0.462 | 0.396 | 0.777 | 0.776 | 0.878 | 0.591 | 0.461
NCI-H661 | 0.552 | 0.572 | 0.434 | 0.37 | 0.315 | 0.82 | 0.943 | 0.745 | 0.508 | 0.425 | 0.342 | 0.374 | 0.332 | 0.323 | 0.353 | 0.759 | 0.841 | 0.706 | 0.476 | 0.382
NCI-H727 | 0.938 | 0.686 | 0.893 | 0.459 | 0.776 | 0.763 | 0.731 | 0.634 | 0.411 | 0.489 | 0.623 | 0.677 | – | 0.605 | 0.692 | 1.16 | 1.47 | 0.873 | 1.12 | 0.96
NCI-H1734 | 0.453 | 0.477 | 0.414 | 0.272 | 0.2 | 0.581 | 0.545 | 0.554 | 0.219 | 0.198 | 0.269 | 0.254 | 0.279 | 0.273 | 0.24 | 0.701 | 0.929 | 0.514 | 0.458 | 0.219
LXF-289 | 0.381 | 0.407 | 0.406 | 0.24 | 0.161 | 0.725 | 0.678 | 0.679 | 0.239 | 0.149 | 0.209 | 0.166 | 0.196 | 0.111 | 0.0978 | 0.763 | 0.744 | 0.953 | 0.547 | 0.136
H3255 | 0.582 | 0.631 | 0.586 | 0.414 | 0.342 | 0.61 | 0.742 | 0.55 | 0.378 | 0.287 | 0.631 | 0.605 | 0.577 | 0.238 | 0.249 | 0.788 | 0.774 | 0.458 | 0.278 | 0.314
201T | 0.839 | 0.816 | 0.677 | 0.735 | 0.561 | 0.997 | 0.947 | 0.902 | 0.843 | 0.784 | 0.824 | 0.995 | 0.886 | 0.709 | 0.465 | 0.905 | 1.03 | 0.811 | 0.887 | 0.485
HOP-62 | 0.157 | 0.197 | 0.137 | 0.154 | 0.118 | 0.531 | 0.477 | 0.325 | 0.144 | 0.106 | 0.388 | 0.386 | 0.366 | 0.279 | 0.203 | 0.631 | 0.711 | 0.381 | 0.267 | 0.115
NCI-H596 | 1 | 0.83 | 0.55 | 0.495 | 0.509 | 0.896 | 0.661 | 0.558 | 0.409 | 0.475 | 0.774 | 1.05 | 0.843 | 0.543 | 0.683 | 0.52 | 0.672 | 0.449 | 0.591 | 0.323
NCI-H1755 | 0.667 | 0.706 | 0.651 | 0.561 | 0.506 | 0.771 | 0.841 | 0.827 | 0.593 | 0.567 | 0.57 | 0.577 | 0.565 | 0.483 | 0.44 | 0.748 | 0.896 | 0.694 | 0.743 | 0.474
NCI-H2023 | 0.195 | 0.195 | 0.152 | 0.113 | 0.0909 | 0.473 | 0.447 | 0.346 | 0.131 | 0.104 | 0.308 | 0.337 | 0.429 | 0.291 | 0.109 | 0.442 | 0.626 | 0.335 | 0.176 | 0.0989
NCI-H2009 | 0.39 | 0.392 | 0.353 | 0.293 | 0.271 | 0.976 | 1.07 | 0.991 | 0.603 | 0.459 | 0.767 | 0.745 | 0.782 | 0.557 | 0.431 | 0.704 | 0.631 | 0.571 | 0.597 | 0.409

— the supplement of paper PMC10307832
